In patent US20100074955A1, “Combination of NMDA-Receptor Ligand and a Compound With 5-HT6 Receptor Affinity” (LABORATORIOS DEL DR. ESTEVE, S.A., priority 2006, published 2010):

System: adult male Lister Hooded rats
Assay: Test of novel object discrimination in rats
Type: in vivo, rat
Details: memantine alone 5, 10, 15 and 20 mg/kg i.p. vs vehicle, 20 minutes before trial, 4 hour inter-trial interval, FIG. 1
Experimental: Adult male Lister Hooded rats (Charles River, UK) weighing 200-350 g at the start of the experiment were housed in groups of four on a 12:12 h light:dark cycle (lights on at 07:00 h). Food and water were available ad libitum throughout the study, and the room temperature (21±2° C.) and relative humidity (45-65%) were kept constant. In one experiment, rats received i.p. injections (2 ml/kg, −20 minutes prior to the familiarisation trial) of memantine (n=12) at 5, 10, 15 and 20 mg/kg compared with vehicle (0.5% methylcellulose in saline, 2 ml/kg), such that all rats received all doses of the compound in a random order with each behavioural test occurring at seven day intervals.
In the combination study, a group of rats (n=12 each) received injection of a sub-effective dose of compound 841 (1 mg/kg i.p.) or vehicle (0.5% methylcellulose in saline, 2 ml/kg), either alone or combined with memantine (5 mg/kg). Each drug combination was administered to all rats in the group over a period of 4 weeks in a random order using a seven day behavioural test interval. […]

CC12CC3CC(C)(C1)CC(N)(C3)C2 [memantine, 1-amino-3,5-dimethyladamantane]
discrimination of a novel object against a familiar object (time spent exploring each object): high amounts of said compound are necessary for rats to discriminate a novel object against a familiar object
